This note sets out measurements from US20260132132A1, “3A,4,5,6-TETRAHYDRO-1 H-PYRAZOLO[3,4-C]PYRIDIN-7(7AH)-ONE DERIVATIVES AS FACTOR XIIA INHIBITORS” (KALVISTA PHARMACEUTICALS LIMITED, priority 2022, published 2026).

Molecules are shown by their SMILES.

The target in assay [1] is T1, Human Factor XIIa (hFXIIa) (Homo sapiens, UniProt P00748).
T1 construct: purchased Enzyme Research Laboratories
T1 sequence (P00748 373-615 limits assumed): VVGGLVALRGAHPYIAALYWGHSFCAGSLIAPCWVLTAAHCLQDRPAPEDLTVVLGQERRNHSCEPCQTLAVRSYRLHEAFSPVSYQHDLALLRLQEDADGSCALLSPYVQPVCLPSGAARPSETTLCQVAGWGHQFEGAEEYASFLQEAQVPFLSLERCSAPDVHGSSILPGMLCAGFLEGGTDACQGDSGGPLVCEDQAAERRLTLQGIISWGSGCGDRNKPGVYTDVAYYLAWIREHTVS
T1 sequence (P00748 20-372 partner limits assumed): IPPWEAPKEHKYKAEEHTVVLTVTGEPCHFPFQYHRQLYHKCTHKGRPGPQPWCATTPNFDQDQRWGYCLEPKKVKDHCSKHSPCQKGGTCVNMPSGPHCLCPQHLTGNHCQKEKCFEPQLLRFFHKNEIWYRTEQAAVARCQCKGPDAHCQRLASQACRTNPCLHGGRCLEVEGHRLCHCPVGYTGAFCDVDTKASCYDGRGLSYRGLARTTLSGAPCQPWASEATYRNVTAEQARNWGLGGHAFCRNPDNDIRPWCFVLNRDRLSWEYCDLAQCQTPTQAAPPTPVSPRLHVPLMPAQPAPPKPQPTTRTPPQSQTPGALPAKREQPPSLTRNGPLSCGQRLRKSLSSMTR
Kind of assay: Determination of Human Factor XIIa (hFXIIa) inhibition, fluorogenic substrate IC50 assay. In kind it is biochemical. The following applies: fluorogenic substrate H-DPro-Phe-Arg-AFC at Km, 25° C., read-out: Human FXIIa IC50. The method, then: Determination of Human Factor XIIa (hFXIIa) inhibition
The Km for the cleavage of the substrate by hFXIIa was determined by standard transformation of the Michaelis-Menten equation, with subsequent inhibition assays performed at substrate Km concentration.

Assay [2] deals with FXa (Homo sapiens, UniProt P00742). The assay is described as follows: Related protease inhibition: FXa, fluorogenic substrate. It is filed as biochemical. The conditions noted are these: fluorogenic substrate at Km, 25° C.; H1-H3 = % activity at 40 μM. As to the method:
Human serine protease enzyme Plasma Kallikrein, KLK1, FXa, Plasmin, Thrombin and Trypsin were assayed for enzymatic activity using an appropriate fluorogenic substrate at Km concentration, FXIa at fixed substrate concentration of 100 μM and various concentrations of the test compound.

Sequence of FXa (P00742 235-488 limits assumed): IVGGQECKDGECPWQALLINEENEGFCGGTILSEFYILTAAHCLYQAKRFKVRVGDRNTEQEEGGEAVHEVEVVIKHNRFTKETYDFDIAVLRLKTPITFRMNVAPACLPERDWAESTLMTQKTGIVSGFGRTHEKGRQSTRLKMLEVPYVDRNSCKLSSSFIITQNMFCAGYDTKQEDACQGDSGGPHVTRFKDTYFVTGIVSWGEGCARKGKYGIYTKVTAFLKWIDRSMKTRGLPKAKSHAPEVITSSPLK
Sequence of FXa (P00742 41-179 partner limits assumed): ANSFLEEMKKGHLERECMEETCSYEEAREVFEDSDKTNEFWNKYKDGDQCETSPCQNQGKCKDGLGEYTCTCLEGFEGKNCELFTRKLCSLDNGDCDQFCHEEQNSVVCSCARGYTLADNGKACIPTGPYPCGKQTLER

What is called IC50 is the concentration needed to halve the response being measured. Consider `CCNC(=O)c1nn(-c2cccc(Cl)c2)c2c1CCN(c1cccc(-n3ccn(C)c3=O)c1)C2=O` [Example 1399, 1-(3-chlorophenyl)-N-ethyl-6-(3-(3-methyl-2-oxo-2,3-dihydro-1H-imidazol-1-yl)phenyl)-7-oxo-4,5,6,7-tetrahydro-1H-pyrazolo[3,4-c]pyridine-3-carboxamide], for which the IC50 is 1 to 3 µM in assay [1] and above 40 µM in assay [2].

On to `CCNC(=O)c1nn(-c2cccc(Cl)c2)c2c1CCN(c1cccc(N3CCC4(CC4)C3=O)c1)C2=O` [Example 1400, 1-(3-chlorophenyl)-N-ethyl-7-oxo-6-(3-(4-oxo-5-azaspiro[2.4]heptan-5-yl)phenyl)-4,5,6,7-tetrahydro-1H-pyrazolo[3,4-c]pyridine-3-carboxamide], for which the results for the IC50 in assay [1] and in assay [2] were 1 to 3 µM and above 40 µM, respectively.

As for `CCNC(=O)c1nn(-c2cccc(Cl)c2)c2c1CCN(c1ccc(OC)c(N3CCCC3=O)c1)C2=O` [Example 1401, 1-(3-chlorophenyl)-N-ethyl-6-(4-methoxy-3-(2-oxopyrrolidin-1-yl)phenyl)-7-oxo-4,5,6,7-tetrahydro-1H-pyrazolo[3,4-c]pyridine-3-carboxamide], the IC50 in assay [1] was 1 to 3 µM; in assay [2] it was above 40 µM.

Consider `CCNC(=O)c1nn(-c2cccc(Cl)c2)c2c1CCN(c1ccc(OC)c(N3C(=O)CC4CC43)c1)C2=O` (stereo not drawn) [Example 1402, 1-(3-chlorophenyl)-N-ethyl-6-(4-methoxy-3-(3-oxo-2-azabicyclo[3.1.0]hexan-2-yl)phenyl)-7-oxo-4,5,6,7-tetrahydro-1H-pyrazolo[3,4-c]pyridine-3-carboxamide], for which the IC50 in assay [1] is 3 to 10 µM; in assay [2] it was above 40 µM.

Take `CN1CCc2ccc(N3CCc4c(CNS(C)(=O)=O)nn(-c5cccc(Cl)c5)c4C3=O)cc2C1=O` [Example 1403, N-((1-(3-chlorophenyl)-6-(2-methyl-1-oxo-1,2,3,4-tetrahydroisoquinolin-7-yl)-7-oxo-4,5,6,7-tetrahydro-1H-pyrazolo[3,4-c]pyridin-3-yl)methyl)methanesulfonamide]: the IC50 lay in the range of 1 to 3 µM in assay [1] and 3 to 10 µM in assay [2].

`CN1CCc2ccc(N3CCc4c(C(=O)N[C@@H](CO)C5CC5)nn(-c5cccc(Cl)c5)c4C3=O)cc2C1=O` [Example 1404, (R)-1-(3-chlorophenyl)-N-(1-cyclopropyl-2-hydroxyethyl)-6-(2-methyl-1-oxo-1,2,3,4-tetrahydroisoquinolin-7-yl)-7-oxo-4,5,6,7-tetrahydro-1H-pyrazolo[3,4-c]pyridine-3-carboxamide]: the IC50 was 0.1 to 0.3 µM in assay [1] and above 40 µM in assay [2].

Take `Cc1ccncc1CNC(=O)c1nn(-c2cccc(Cl)c2F)c2c1CCN(c1ccc3c(c1)CN(CCO)CC3)C2=O` [Example 2002, 1-(3-Chloro-2-fluorophenyl)-6-(2-(2-hydroxyethyl)-1,2,3,4-tetrahydroisoquinolin-7-yl)-N-((4-methylpyridin-3-yl)methyl)-7-oxo-4,5,6,7-tetrahydro-1H-pyrazolo[3,4-c]pyridine-3-carboxamide]: the IC50 in assay [1] was 0.01 to 0.1 µM; in assay [2], above 40 µM.

Turning to `CN1CCc2ccc(N3CCc4c(C(=O)NCC5CC5)nn(-c5cccc(Cl)c5F)c4C3=O)cc2C1=O` [Example 2004, 1-(3-chloro-2-fluorophenyl)-N-(cyclopropylmethyl)-6-(2-methyl-1-oxo-1,2,3,4-tetrahydroisoquinolin-7-yl)-7-oxo-4,5,6,7-tetrahydro-1H-pyrazolo[3,4-c]pyridine-3-carboxamide], the IC50 in assay [1] was 0.1 to 0.3 µM; in assay [2] it was above 40 µM.

As to `CN1CCc2ccc(N3CCc4c(C(=O)NCC5CC5)nn(-c5cccc(C#N)c5)c4C3=O)cc2C1=O` [Example 2005, 1-(3-cyanophenyl)-N-(cyclopropylmethyl)-6-(2-methyl-1-oxo-1,2,3,4-tetrahydroisoquinolin-7-yl)-7-oxo-4,5,6,7-tetrahydro-1H-pyrazolo[3,4-c]pyridine-3-carboxamide], the half-maximal inhibitory concentration (IC50) in assay [1] is 0.3 to 1 µM; in assay [2], above 40 µM.
